Drawing on patent publication US11419869B2, “Dosage forms and regimens for amino acid compounds” (Pliant Therapeutics, Inc., priority 2019, dated 2022), this text covers IC50 for 23 compounds.

The IC50 is the concentration that inhibits the measured activity by half.

recombinant human integrin αvβ6, sequence (P06756 31-992): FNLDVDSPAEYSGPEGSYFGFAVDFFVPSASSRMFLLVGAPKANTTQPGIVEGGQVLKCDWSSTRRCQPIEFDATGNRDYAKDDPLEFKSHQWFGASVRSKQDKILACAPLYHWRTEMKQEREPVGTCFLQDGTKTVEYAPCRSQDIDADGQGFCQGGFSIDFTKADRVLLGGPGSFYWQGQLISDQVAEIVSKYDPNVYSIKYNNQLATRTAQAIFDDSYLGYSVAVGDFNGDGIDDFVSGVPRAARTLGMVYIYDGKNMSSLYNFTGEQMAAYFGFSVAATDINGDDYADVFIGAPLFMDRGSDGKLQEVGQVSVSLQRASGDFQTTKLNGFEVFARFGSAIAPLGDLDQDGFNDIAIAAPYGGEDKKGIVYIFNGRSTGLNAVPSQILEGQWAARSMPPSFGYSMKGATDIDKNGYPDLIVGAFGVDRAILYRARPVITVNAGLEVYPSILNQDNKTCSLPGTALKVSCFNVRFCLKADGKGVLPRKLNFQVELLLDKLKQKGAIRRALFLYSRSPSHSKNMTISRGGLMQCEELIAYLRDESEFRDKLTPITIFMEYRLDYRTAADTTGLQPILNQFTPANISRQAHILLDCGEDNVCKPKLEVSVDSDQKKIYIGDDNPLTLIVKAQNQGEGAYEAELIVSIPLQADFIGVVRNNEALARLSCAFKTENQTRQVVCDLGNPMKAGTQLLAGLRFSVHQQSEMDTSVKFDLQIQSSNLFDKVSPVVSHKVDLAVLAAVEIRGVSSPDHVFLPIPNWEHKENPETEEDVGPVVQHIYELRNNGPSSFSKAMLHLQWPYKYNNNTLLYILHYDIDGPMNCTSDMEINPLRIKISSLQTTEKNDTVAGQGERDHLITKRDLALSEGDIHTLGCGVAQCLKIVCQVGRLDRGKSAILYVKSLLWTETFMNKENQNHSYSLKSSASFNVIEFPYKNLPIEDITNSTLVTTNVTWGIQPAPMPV
recombinant human integrin αvβ6, sequence (P18564 22-707): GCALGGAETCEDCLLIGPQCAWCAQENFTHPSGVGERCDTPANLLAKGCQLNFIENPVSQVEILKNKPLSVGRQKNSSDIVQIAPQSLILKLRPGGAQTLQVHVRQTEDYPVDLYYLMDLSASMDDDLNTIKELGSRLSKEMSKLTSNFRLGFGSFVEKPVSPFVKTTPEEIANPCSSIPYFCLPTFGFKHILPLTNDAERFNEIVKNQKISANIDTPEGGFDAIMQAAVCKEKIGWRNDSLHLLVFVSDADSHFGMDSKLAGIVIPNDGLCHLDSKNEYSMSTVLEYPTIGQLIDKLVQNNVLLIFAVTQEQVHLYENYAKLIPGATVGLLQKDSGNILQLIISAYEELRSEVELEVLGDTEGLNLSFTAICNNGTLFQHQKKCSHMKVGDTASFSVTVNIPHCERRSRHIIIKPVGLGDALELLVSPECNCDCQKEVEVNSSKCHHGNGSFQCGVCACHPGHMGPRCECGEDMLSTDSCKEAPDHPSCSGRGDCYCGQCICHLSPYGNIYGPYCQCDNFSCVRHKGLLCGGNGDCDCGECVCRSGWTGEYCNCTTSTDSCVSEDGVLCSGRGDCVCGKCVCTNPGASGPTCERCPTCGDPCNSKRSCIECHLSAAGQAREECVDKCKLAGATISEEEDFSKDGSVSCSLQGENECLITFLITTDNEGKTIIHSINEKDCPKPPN

The assay has as its target recombinant human integrin αvβ6 (Homo sapiens (Human), UniProt P06756+P18564). Briefly: Solid Phase Integrin αvβ6 Binding Assay (Examples B1, B2). To be noted: TGFβ1 LAP ligand, values given in four ranges, read-out: αvβ6 Inhibition IC50 (nM)-range. The protocol:
(§1) Microplates were coated with recombinant human integrin αvβ6 (2 μg/mL) in PBS (100 μL/well 25° C., overnight). The coating solution was removed, washed with wash buffer (0.05% Tween 20; 0.5 mM MnCl2; in 1×TBS). The plate was blocked with 200 μL/well of Block Buffer (1% BSA; 5% sucrose; 0.5 mM MnCl2; in 1×TBS) at 37° C. for 2 h. Dilutions of testing compounds and recombinant TGFβ1 LAP (0.67 μg/mL) in binding buffer (0.05% BSA; 2.5% sucrose; 0.5 mM MnCl2; in 1×TBS) were added. The plate was incubated for 2 hours at 25° C., washed, and incubated for 1 hour with Biotin-Anti-hLAP. Bound antibody was detected by peroxidase-conjugated streptavidin. The IC50 values for testing compounds were calculated by four-parameter logistic regression.
The compounds tested were compound samples prepared according to procedures described in the Synthetic Examples section, with the stereochemical purity as indicated in the Examples.
as §1, with “A third series of exemplary compounds was selected for testing in the solid phase integrin αvβ6 binding assay. The compounds tested were compound samples prepared according to procedures described in the Synthetic Examples section, with the stereochemical purity as indicated in the Examples. As in Example B1, microplates were coated” for “Microplates were coated”, “calculated by a four-parameter logistic” for “calculated by four-parameter logistic”
With `CN(C)C(=O)CN(CCCCc1ccc2c(n1)NCCC2)CC[C@H](Nc1ncnc2ccccc12)C(=O)O` [Compound 64, (S)-4-((2-(dimethylamino)-2-oxoethyl) (4-(5,6,7,8-tetrahydro-1,8-naphthyridin-2-yl)butyl)amino)-2-(quinazolin-4-ylamino) butanoic acid], the IC50 was less than 50 nM.
Then `O=C(O)[C@H](CCN(CCCCc1ccc2c(n1)NCCC2)CCOc1ccccc1)Nc1ccnc(C(F)(F)F)n1` [Compound 92, (S)-4-((2-phenoxyethyl) (4-(5,6,7,8-tetrahydro-1,8-naphthyridin-2-yl)butyl)amino)-2-((2-(trifluoromethyl)pyrimidin-4-yl)amino) butanoic acid], with less than 50 nM.
The value for `O=C(O)[C@H](CCN(CCCCc1ccc2c(n1)NCCC2)CC1CCO1)Nc1ncnc2ccccc12` (stereo partly drawn) [Compound 129, (2S)-4-((oxetan-2-ylmethyl) (4-(5,6,7,8-tetrahydro-1,8-naphthyridin-2-yl)butyl)amino)-2-(quinazolin-4-ylamino) butanoic acid] was less than 50 nM; that for `O=C(O)[C@H](CCN(CCCCc1ccc2c(n1)NCCC2)CCOc1cncc(F)c1)Nc1ncnc2ccccc12` [Compound 58, (S)-4-((2-((5-fluoropyridin-3-yl)oxy)ethyl) (4-(5,6,7,8-tetrahydro-1,8-naphthyridin-2-yl)butyl)amino)-2-(quinazolin-4-ylamino) butanoic acid] was less than 50 nM; that for `CO[C@H](C)CN(CCCCc1ccc2c(n1)NCCC2)CC[C@H](Nc1ncnc2[nH]ncc12)C(=O)O` [Compound 71, (S)-2-((1H-pyrazolo[3,4-d]pyrimidin-4-yl)amino)-4-(((R)-2-methoxypropyl) (4-(5,6,7,8-tetrahydro-1,8-naphthyridin-2-yl)butyl)amino) butanoic acid] was less than 50 nM.
The value for `O=C(O)[C@H](CCN(CCCCc1ccc2c(n1)NCCC2)C1CC(F)(F)C1)Nc1ncnc2ccccc12` [Compound 9, (S)-4-((3,3-difluorocyclobutyl) (4-(5,6,7,8-tetrahydro-1,8-naphthyridin-2-yl)butyl)amino)-2-(quinazolin-4-ylamino) butanoic acid] was greater than 1000 nM; that for `COCCN(CCCCc1ccc2c(n1)NCCC2)CC[C@H](Nc1nccc2ccccc12)C(=O)O` [Compound 34, (S)-2-(isoquinolin-1-ylamino)-4-((2-methoxyethyl) (4-(5,6,7,8-tetrahydro-1,8-naphthyridin-2-yl)butyl)amino) butanoic acid] was greater than 1000 nM; that for `COCCN(CCCCc1ccc2c(n1)NCCC2)CC[C@H](Nc1ccnc(C(F)(F)F)n1)C(=O)O` [Compound 24, (S)-4-((2-methoxyethyl) (4-(5,6,7,8-tetrahydro-1,8-naphthyridin-2-yl)butyl)amino)-2-((2-(trifluoromethyl)pyrimidin-4-yl)amino) butanoic acid] was less than 50 nM.
As to `COCCN(CCCCc1ccc2c(n1)NCCC2)CC[C@H](Nc1ncnc2cc(F)ccc12)C(=O)O` [Compound 7, (S)-2-((7-fluoroquinazolin-4-yl)amino)-4-((2-methoxyethyl) (4-(5,6,7,8-tetrahydro-1,8-naphthyridin-2-yl)butyl)amino) butanoic acid], the IC50 is less than 50 nM.
`COC[C@@H](F)CN(CCCCc1ccc2c(n1)NCCC2)CC[C@H](Nc1ncnc2c1cnn2C)C(=O)O` [Compound 105, (S)-4-(((S)-2-fluoro-3-methoxypropyl) (4-(5,6,7,8-tetrahydro-1,8-naphthyridin-2-yl)butyl)amino)-2-((1-methyl-1H-pyrazolo[3,4-d]pyrimidin-4-yl)amino) butanoic acid]: the IC50 was less than 50 nM.
Then `COCCN(CCCCc1ccc2c(n1)NCCC2)CC[C@H](Nc1nc(C)nc2ccccc12)C(=O)O` [Compound 10, (S)-4-((2-methoxyethyl) (4-(5,6,7,8-tetrahydro-1,8-naphthyridin-2-yl)butyl)amino)-2-((2-methylquinazolin-4-yl)amino) butanoic acid], with less than 50 nM.
Take `COCCN(CCCCc1ccc2c(n1)NCCC2)CC[C@H](Nc1ncnc2c(C(F)(F)F)cccc12)C(=O)O` [Compound 15, (S)-4-((2-methoxyethyl) (4-(5,6,7,8-tetrahydro-1,8-naphthyridin-2-yl)butyl)amino)-2-((8-(trifluoromethyl)quinazolin-4-yl)amino) butanoic acid]: the IC50 is less than 50 nM.
For `COC[C@@H](F)CN(CCCCc1ccc2c(n1)NCCC2)CC[C@H](Nc1nc(C)nc2ccccc12)C(=O)O` [Compound 46, (S)-4-(((S)-2-fluoro-3-methoxypropyl) (4-(5,6,7,8-tetrahydro-1,8-naphthyridin-2-yl)butyl)amino)-2-((2-methylquinazolin-4-yl)amino) butanoic acid], the IC50 is less than 50 nM.
The value for `COC[C@@H](F)CN(CCCCc1ccc2c(n1)NCCC2)CC[C@H](Nc1nc(C)nc2cc(F)ccc12)C(=O)O` [Compound 32, (S)-2-((7-fluoro-2-methylquinazolin-4-yl)amino)-4-(((S)-2-fluoro-3-methoxypropyl) (4-(5,6,7,8-tetrahydro-1,8-naphthyridin-2-yl)butyl)amino) butanoic acid] was less than 50 nM; that for `COc1ccc2c(N[C@@H](CCN(CCCF)CCCCc3ccc4c(n3)NCCC4)C(=O)O)ncnc2c1` [Compound 41, (S)-4-((3-fluoropropyl) (4-(5,6,7,8-tetrahydro-1,8-naphthyridin-2-yl)butyl)amino)-2-((7-methoxyquinazolin-4-yl)amino) butanoic acid] was less than 50 nM; that for `COC[C@@H](F)CN(CCCCc1ccc2c(n1)NCCC2)CC[C@H](Nc1nc(-c2cccnc2)nc2ccccc12)C(=O)O` [Compound 109, (S)-4-(((S)-2-fluoro-3-methoxypropyl) (4-(5,6,7,8-tetrahydro-1,8-naphthyridin-2-yl)butyl)amino)-2-((2-(pyridin-3-yl)quinazolin-4-yl)amino) butanoic acid] was less than 50 nM.
Consider `CO[C@H](C)CN(CCCCc1ccc2c(n1)NCCC2)CC[C@H](Nc1cc(-c2ccccc2)ncn1)C(=O)O` [Compound 80, (S)-4-(((R)-2-methoxypropyl) (4-(5,6,7,8-tetrahydro-1,8-naphthyridin-2-yl)butyl)amino)-2-((6-phenylpyrimidin-4-yl)amino) butanoic acid], for which the IC50 is less than 50 nM.
Then `COCCN(CCCCc1ccc2c(n1)NCCC2)CC[C@H](Nc1ncnc2c(F)cccc12)C(=O)O` [Compound 20, (S)-2-((8-fluoroquinazolin-4-yl)amino)-4-((2-methoxyethyl) (4-(5,6,7,8-tetrahydro-1,8-naphthyridin-2-yl)butyl)amino) butanoic acid], with less than 50 nM; and `CO[C@H](C)CN(CCCCc1ccc2c(n1)NCCC2)CC[C@H](Nc1ncnc2c1cnn2C)C(=O)O` [Compound 74, (S)-4-(((R)-2-methoxypropyl) (4-(5,6,7,8-tetrahydro-1,8-naphthyridin-2-yl)butyl)amino)-2-((1-methyl-1H-pyrazolo[3,4-d]pyrimidin-4-yl)amino) butanoic acid], with less than 50 nM; and `O=C(O)[C@H](CCN(CCCCc1ccc2c(n1)NCCC2)CCOc1ccccc1)Nc1cc(-n2cccn2)ncn1` [Compound 91, (S)-2-((6-(1H-pyrazol-1-yl)pyrimidin-4-yl)amino)-4-((2-phenoxyethyl) (4-(5,6,7,8-tetrahydro-1,8-naphthyridin-2-yl)butyl)amino) butanoic acid], with less than 50 nM.
Consider `O=C(O)[C@H](CCN(CCCCc1ccc2c(n1)NCCC2)CC(F)F)Nc1ncncc1-c1ccccc1` [Compound 119, (S)-4-((2,2-difluoroethyl) (4-(5,6,7,8-tetrahydro-1,8-naphthyridin-2-yl)butyl)amino)-2-((5-phenylpyrimidin-4-yl)amino) butanoic acid], for which the concentration for half-maximal inhibition (IC50) was greater than 1000 nM.
The value for `CS(=O)(=O)CCN(CCCCc1ccc2c(n1)NCCC2)CC[C@H](Nc1ccnc(C(F)(F)F)n1)C(=O)O` [Compound 104, (S)-4-((2-(methylsulfonyl)ethyl) (4-(5,6,7,8-tetrahydro-1,8-naphthyridin-2-yl)butyl)amino)-2-((2-(trifluoromethyl)pyrimidin-4-yl)amino) butanoic acid] was greater than 1000 nM; that for `CO[C@H](C)CN(CCCCc1ccc2c(n1)NCCC2)CC[C@H](Nc1nc(C)nc2ccccc12)C(=O)O` [Compound 66, (S)-4-(((R)-2-methoxypropyl) (4-(5,6,7,8-tetrahydro-1,8-naphthyridin-2-yl)butyl)amino)-2-((2-methylquinazolin-4-yl)amino) butanoic acid] was less than 50 nM.
